# Patent US10342809B2, “Neuroactive 19-alkoxy-17-substituted steroids, prodrugs thereof, and methods of treatment using same” (priority 2012, dated 2019)
# Like-named read-outs stand apart in the source and are kept apart here.
# Experiments:
# [1] = molecular target: T1, rat α1β2γ2L type GABAA receptors expressed in Xenopus laevis oocytes (Rattus norvegicus, UniProt P62813+P63138); test: Oocyte electrophysiology: potentiation of GABA-mediated chloride currents and direct gating; type: cell-based; details: 2 μM GABA, ± SEM, N ≥4; for oocyte electrophysiology 0.1 μM: ratio of currents in presence/absence of 0.1 μM compound; for oocyte electrophysiology 1 μM: ratio of currents in presence/absence of 1 μM compound; for oocyte electrophysiology 10 μM: ratio of currents in presence/absence of 10 μM compound
# T1 construct: expressed in transfected cells; host or cells: Xenopus laevis oocytes
# Description: The compounds of the present disclosure were evaluated for the ability to potentiate chloride currents mediated by 2 μM GABA at rat α1β2γ2L type GABAA receptors expressed in Xenopus laevis oocytes and the results are shown in Table 2.
# Tadpole = Tadpole loss of righting reflex (LRR) and loss of swimming reflex (LSR); type: in vivo; details: ± SEM
# Description: Table 3 discloses the anesthetic effects of the compounds of the present disclosure. In particular, the anesthetic effect of the compounds of the present disclosure on Loss of Righting Reflex (LRR) and Loss of Swimming Reflex (LSR).
# Methods used are known in the art (see Jiang, X., et al.). Error limits are calculated as standard error of the mean (N=10 or more animals at each of five or more different concentrations).
# [2] = molecular target: T1, rat α1β2γ2L type GABAA receptors expressed in Xenopus laevis oocytes; test: Oocyte electrophysiology: potentiation of GABA-mediated chloride currents and direct gating; type: cell-based; details: direct current gated by 10 μM compound in absence of GABA; ratio of compound only current/2 μM GABA current
# [3] = molecular target: picrotoxin binding site on GABAA receptors; test: [35S]-TBPS displacement (inhibition of [35S]-TBPS binding); details: non-competitive displacement; duplicate experiments in triplicate; ± SEM
# Text: The IC50 values for non-competitive displacers of [^35S]-TBPS from the picrotoxin binding site on GABAA receptors are reported in Table 1.
# [4] = loss of righting reflex, read-out: Tadpole LRR EC50
# [5] = loss of swimming reflex, read-out: Tadpole LSR EC50
# T1 sequence (P62813 28-455): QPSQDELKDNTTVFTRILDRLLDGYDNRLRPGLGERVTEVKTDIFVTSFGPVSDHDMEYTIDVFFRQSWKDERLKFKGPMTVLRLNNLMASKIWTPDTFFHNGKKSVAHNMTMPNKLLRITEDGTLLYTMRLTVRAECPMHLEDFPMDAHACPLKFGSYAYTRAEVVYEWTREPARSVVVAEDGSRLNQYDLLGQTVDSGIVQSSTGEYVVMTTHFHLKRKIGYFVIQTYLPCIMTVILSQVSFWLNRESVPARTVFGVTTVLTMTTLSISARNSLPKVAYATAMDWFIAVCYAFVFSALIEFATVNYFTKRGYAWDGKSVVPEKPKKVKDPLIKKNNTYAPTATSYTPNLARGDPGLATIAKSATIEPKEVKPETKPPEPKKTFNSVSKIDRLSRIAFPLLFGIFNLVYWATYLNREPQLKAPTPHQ
# T1 sequence (P63138 26-474): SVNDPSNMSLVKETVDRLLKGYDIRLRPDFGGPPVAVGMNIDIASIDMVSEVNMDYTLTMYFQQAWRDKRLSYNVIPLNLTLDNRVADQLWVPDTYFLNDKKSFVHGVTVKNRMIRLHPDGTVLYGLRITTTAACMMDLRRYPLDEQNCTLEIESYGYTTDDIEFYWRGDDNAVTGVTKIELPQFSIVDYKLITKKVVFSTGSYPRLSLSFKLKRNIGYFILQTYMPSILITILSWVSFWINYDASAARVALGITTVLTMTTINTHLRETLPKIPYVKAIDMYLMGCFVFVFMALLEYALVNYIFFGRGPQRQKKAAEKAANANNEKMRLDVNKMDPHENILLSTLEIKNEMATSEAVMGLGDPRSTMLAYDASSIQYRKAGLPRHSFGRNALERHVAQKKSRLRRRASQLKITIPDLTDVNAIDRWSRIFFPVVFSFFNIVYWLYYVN
# T1 sequence (P18508 with tags, fused parts or gaps INS375LLRMFSFK partner): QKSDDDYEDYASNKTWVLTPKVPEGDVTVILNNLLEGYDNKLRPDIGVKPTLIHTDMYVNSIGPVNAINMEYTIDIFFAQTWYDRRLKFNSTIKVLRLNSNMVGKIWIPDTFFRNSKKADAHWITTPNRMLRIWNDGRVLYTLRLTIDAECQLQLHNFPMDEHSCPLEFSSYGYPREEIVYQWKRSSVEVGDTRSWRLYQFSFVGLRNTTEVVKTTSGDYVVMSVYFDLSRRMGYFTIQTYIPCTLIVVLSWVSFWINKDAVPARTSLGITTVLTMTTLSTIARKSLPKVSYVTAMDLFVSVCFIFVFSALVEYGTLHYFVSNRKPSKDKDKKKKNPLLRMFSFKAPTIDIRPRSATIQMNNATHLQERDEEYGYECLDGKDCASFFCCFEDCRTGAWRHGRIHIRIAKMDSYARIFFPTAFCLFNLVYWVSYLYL
Compound,oocyte electrophysiology 0.1 μM [1],oocyte electrophysiology 1 μM [1],oocyte electrophysiology 10 μM [1],EC50 (Tadpole; [4]),melting point,EC50 (Tadpole; [5]),oocyte electrophysiology (gating) 10 μM [2],IC50 [3]
"COC[C@]12CCC(O)CC1CC[C@@H]1[C@@H]2CC[C@]2(C)C(=O)CC[C@@H]12 (stereo in doubt) [Compound 30, (3α,5β)-3-Hydroxy-19-methoxyandrostan-17-one]",0.90 ± 0.02,0.88 ± 0.01,0.84 ± 0.02,> 10 µM,–,–,–,–
"COC[C@]12CCC(=O)C[C@@H]1CC[C@H]1[C@@H]3CC[C@H](OC)[C@@]3(C)CC[C@@H]12 [Compound 7, (5α,17β)-17,19-Dimethoxyandrostan-3-one]",1.00 ± 0,0.85 ± 0.01,1.07 ± 0.02,1.71 ± 0.25 µM,91 to 93 °C,5.48 ± 0.12 µM,0.04 ± 0.03,–
"COC[C@]12CC[C@@H](O)C[C@@H]1CC[C@H]1[C@@H]3CC[C@H](OC)[C@@]3(C)CC[C@@H]12 [Compound 8, (5α,17β)-17,19-Dimethoxyandrostan-3-ol]",1.65 ± 0.08,7.63 ± 0.77,20.9 ± 2.73,332 ± 43 µM,–,1.07 ± 0.01 µM,0.22 ± 0.01,–
"COC[C@]12CC[C@@H](O)C[C@@H]1CC[C@@H]1[C@@H]2CC[C@]2(C)C(=O)CC[C@@H]12 [Compound 11, (3α,5α)-3-Hydroxy-19-methoxyandrostan-17-one]",0.71 ± 0.02,0.76 ± 0.07,2.17 ± 0.12,7.95 ± 3.29 µM,–,17.3 ± 0.2 µM,0 ± 0.07,4.3 µM
"COC[C@]12CC[C@@H](O)C[C@@H]1CC[C@@H]1[C@@H]2CC[C@@]2(C)[C@H]1CC[C@@]21CO1 [Compound 12, (3α,5α,17β)-19-Methoxyspiro[androstane-17,2′-oxiran]-3-ol]",1.24 ± 0.05,7.40 ± 1.43,18.7 ± 6.19,1.73 ± 0.05 µM,–,3.54 ± 2.33 µM,0.14 ± 0.04,–
"COC[C@]12CC[C@@H](O)C[C@@H]1CC[C@@H]1[C@@H]2CC[C@]2(C)C(C#N)=CC[C@@H]12 [Compound 15, (3α,5α)-3-Hydroxy-19-methoxyandrost-16-ene-17-carbonitrile]",1.27 ± 0.13,5.34 ± 0.86,25.6 ± 3.23,1.22 ± 0.94 µM,–,2.71 µM,0.10 ± 0.09,–
"COC[C@]12CC[C@@H](O)C[C@@H]1CC[C@H]1[C@@H]3CC[C@H](C#N)[C@@]3(C)CC[C@@H]12 [Compound 16, (3α,5α,17β)-3-Hydroxy-19-methoxyandrostane-17-carbonitrile]",1.52 ± 0.02,9.79 ± 0.53,25.7 ± 2.11,0.36 ± 0.04 µM,–,0.99 ± 0.17 µM,0.25 ± 0.11,–
"COC[C@]12CC[C@@H](O)C[C@@H]1CC[C@H]1[C@@H]3CC[C@H](C(C)=O)[C@@]3(C)CC[C@@H]12 [Compound 17, (3α,5α)-3-Hydroxy-19-methoxypregnan-20-one]",2.15 ± 0.19,12.8 ± 1.74,33.8 ± 5.44,0.36 ± 0.04 µM,–,1.71 ± 0.03 µM,0.23 ± 0.07,–
"COC[C@]12CC[C@@H](O)C[C@@H]1CC[C@H]1[C@@H]3CC[C@H](C(=O)CO)[C@@]3(C)CC[C@@H]12 [Compound 20, (3α,5α)-3,21-Dihydroxy-19-methoxypregnan-20-one]",0.98 ± 0.01,2.76 ± 0.27,19.0 ± 2.31,3.15 ± 0.5 µM,–,5.48 ± 0.12 µM,0.09 ± 0.05,–
"COC[C@]12CCC(=O)C=C1CC[C@@H]1[C@@H]2CC[C@]2(C)[C@@H](OC)CC[C@@H]12 [Compound 24, (17β)-17,19-Dimethoxyandrost-4-en-3-one]",0.88 ± 0.08,0.63 ± 0.06,1.06 ± 0.17,–,–,–,0.11 ± 0.17,–
"COC[C@]12CC[C@@H](O)CC1=CC[C@@H]1[C@@H]2CC[C@]2(C)[C@@H](OC)CC[C@@H]12 [Compound 25, (3α,17β)-17, 19-Dimethoxyandrost-5-en-3-ol]",0.94 ± 0.07,1.97 ± 0.08,15.7 ± 0.90,3.38 ± 0.38 µM,–,10.5 µM,0.08 ± 0.07,–
"COC[C@]12CC[C@H](O)CC1=CC[C@@H]1[C@@H]2CC[C@]2(C)[C@@H](OC)CC[C@@H]12 [Compound 26, (3β,17β)-17, 19-Dimethoxyandrost-5-en-3-ol]",0.83 ± 0.03,0.76 ± 0.02,0.78 ± 0.02,–,–,–,0.02 ± 0.02,–
"COC[C@]12CC[C@@H](O)C[C@@H]1CC[C@H]1[C@@H]3CC[C@H]([N+](=O)[O-])[C@@]3(C)CC[C@@H]12 [Compound 29, (3α,5α,17β)-19-methoxy-17-nitroandrostan-3-ol]",2.07 ± 0.09,15.7 ± 1.45,26.6 ± 4.34,0.16 ± 0.01 µM,–,0.55 ± 0.01 µM,0.11 ± 0.01,–
"COC[C@]12CC[C@H](O)C[C@@H]1CC[C@H]1[C@@H]3CC[C@H](OC)[C@@]3(C)CC[C@@H]12 [Compound 31, (3β,5α,17β)-17, 19-Dimethoxyandrostan-3-ol]",0.91 ± 0.02,0.97 ± 0.05,1.10 ± 0.05,7.04 ± 1.98 µM,–,16.8 ± 5.9 µM,0.02 ± 0,–
